Assay results reported in US10689399B2, “Substituted 3,4,5,6,8,10,14,14a-octahydro-2h-2,6-methanopyrido[1′,2′:4,5]pyrazino[2,1-b][1,3]oxazocines and methods for treating viral infections” (Gilead Sciences, Inc., priority 2012, dated 2020).

test system: HIV-IIIb; experiment: Antiviral assay in MT4 cells; format: cell-based; conditions: Human immunodeficiency virus 1, IIIB, MT4, 120 h, MT4 cells infected with HIV-IIIb, 5 days, CellTiter-Glo; read-out: EC50 nM in MT-4
Outline: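 MT4 cells pre-infected with HIV-IIIb (0.004 m.o.i.) at 37 °C, or mock-infected, then seeded at 2000 cells/well onto 3-fold serially diluted compound (10 concentrations, quadruplicate) in RPMI 1640 with 10% FBS. After 5 days at 37 °C, cell viability read by CellTiter-Glo luminescence.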

In order of rising EC50:
1. O=C(NCc1c(F)cc(F)cc1F)c1cn2c(c(O)c1=O)C(=O)N1[C@H]3CC[C@H](C3)[C@H]1C2 [Compound 55, (1R,4S,12aS)-7-hydroxy-6,8-dioxo-N-(2,4,6-trifluorobenzyl)-1,2,3,4,6,8,12,12a-octahydro-1,4-methanodipyrido[1,2-a:1′,2′-d]pyrazine-9-carboxamide]  1.5 nM
2. O=C(NCc1ccc(F)c(Cl)c1F)c1cn2c(c(O)c1=O)C(=O)N1[C@H]3CC[C@H](C3)[C@H]1C2 [Compound 61, (1R,4S,12aS)—N-(3-chloro-2,4-difluorobenzyl)-7-hydroxy-6,8-dioxo-1,2,3,4,6,8,12,12a-octahydro-1,4-methanodipyrido[1,2-a:1′,2′-d]pyrazine-9-carboxamide]  1.8 nM
3. O=C(NCc1ccc(F)c(Cl)c1F)c1cn2c(c(O)c1=O)C(=O)N1[C@H]3CC[C@H](C3)[C@@H]1C2 [Compound 69, (1R,4S,12aR)—N-(3-chloro-2,4-difluorobenzyl)-7-hydroxy-6,8-dioxo-1,2,3,4,6,8,12,12a-octahydro-1,4-methanodipyrido[1,2-a:1′,2′-d]pyrazine-9-carboxamide]  1.9 nM
4. O=C(NCc1c(F)cc(F)cc1F)c1cn2c(c(O)c1=O)C(=O)N1[C@H](C2)[C@H]2C[C@@H]1C(F)(F)C2 [Compound 83, (1S,4R,12aS)-3,3-di fluoro-7-hydroxy-6,8-dioxo-N-(2,4,6-trifluorobenzyl)-1,2,3,4,6,8,12,12a-octahydro-1,4-methanodipyrido[1,2-a:1′,2′-d]pyrazine-9-carboxamide]  1.9 nM
5. O=C(NCc1ccc(F)c(F)c1F)c1cn2c(c(O)c1=O)C(=O)N1[C@@H]3CC[C@@H](C3)O[C@H]1C2 [Compound 44, (13aS)-8-hydroxy-7,9-dioxo-N-(2,3,4-trifluorobenzyl)-2,3,4,5,7,9,13,13a-octahydro-2,5-methanopyrido[1′,2′:4,5]pyrazino[2,1-b][1,3]oxazepine-10-carboxamide]  2.3 nM
6. C[C@H]1C[C@@H]2C[C@H]1N1C(=O)c3c(O)c(=O)c(C(=O)NCc4c(F)cc(F)cc4F)cn3C[C@H]21 [Compound 86, (1R,3S,4R,12aS)-7-hydroxy-3-methyl-6,8-dioxo-N-(2,4,6-trifluorobenzyl)-1,2,3,4,6,8,12,12a-octahydro-1,4-methanodipyrido[1,2-a:1′,2′-d]pyrazine-9-carboxamide]  2.3 nM
7. O=C(NCc1ccc(F)c(Cl)c1)c1cn2c(c(O)c1=O)C(=O)N1[C@H]3CC[C@H](C3)[C@@H]1C2 [Compound 75, (1R,4S,12aR)—N-(3-chloro-4-fluorobenzyl)-7-hydroxy-6,8-dioxo-1,2,3,4,6,8,12,12a-octahydro-1,4-methanodipyrido[1,2-a:1′,2′-d]pyrazine-9-carboxamide]  2.8 nM
8. C[C@@H](NC(=O)c1cn2c(c(O)c1=O)C(=O)N1[C@@H]3CC[C@H](C3)O[C@@H]1C2)c1c(F)cc(F)cc1F [Compound 78, (2R,13aR)-8-hydroxy-7,9-dioxo-N—((R)-1-(2,4,6-trifluorophenyl)ethyl)-2,3,4,5,7,9,13,13a-octahydro-2,5-methanopyrido[1%2′: 4,5]pyrazino[2,1-b][1,3]oxazepine-10-carboxamide]  5.6 nM
9. C[C@@H](NC(=O)c1cn2c(c(O)c1=O)C(=O)N1[C@H]3CC[C@H](C3)O[C@@H]1C2)c1ccc(F)cc1F [Compound 12, (2R,5S,13aR)—N—((R)-1-(2,4-difluorophenyl)ethyl)-8-hydroxy-7,9-dioxo-2,3,4,5,7,9,13,13a-octahydro-2,5-methanopyrido[1′,2′:4,5]pyrazino[2,1-b][1,3]oxazepine-10-carboxamide]  5.9 nM
10. O=C(NCc1ccc(F)cc1C(F)(F)F)c1cn2c(c(O)c1=O)C(=O)N1[C@H]3CC[C@H](C3)O[C@@H]1C2 [Compound 62, (2R,5S,13aR)—N-(4-fluoro-2-(trifluoromethyl)benzyl)-8-hydroxy-7,9-dioxo-2,3,4,5,7,9,13,13a-octahydro-2,5-methanopyrido[1′,2′:4,5]pyrazino[2,1-b][1,3]oxazepine-10-carboxamide]  9.2 nM
11. O=C(NCc1ccc(Cl)c(F)c1)c1cn2c(c(O)c1=O)C(=O)N1[C@@H]3CC[C@@H](C3)O[C@H]1C2 [Compound 26, (2 S,5R,13aS)—N-(4-chloro-3-fluorobenzyl)-8-hydroxy-7,9-dioxo-2,3,4,5,7,9,13,13a-octahydro-2,5-methanopyrido[1′,2′: 4,5]pyrazino[2,1-b][1,3]oxazepine-10-carboxamide]  10.3 nM
12. O=C(NCc1ccc(F)cc1C(F)(F)F)c1cn2c(c(O)c1=O)C(=O)N1[C@H]3CC[C@H](C3)[C@@H]1C2 [Compound 67, (1R,4S,12aR)—N-(4-fluoro-2-(trifluoromethyl)benzyl)-7-hydroxy-6,8-dioxo-1,2,3,4,6,8,12,12a-octahydro-1,4-methanodipyrido[1,2-a:1′,2′-d]pyrazine-9-carboxamide]  10.7 nM
13. O=C(NCc1ccc(F)c(C(F)(F)F)c1)c1cn2c(c(O)c1=O)C(=O)N1[C@@H]3CC[C@@H](C3)O[C@H]1C2 [Compound 25, (2S,5R,13aS)—N-(4-fluoro-3-(trifluoromethyl)benzyl)-8-hydroxy-7,9-dioxo-2,3,4,5,7,9,13,13a-octahydro-2,5-methanopyrido[1′,2′:4,5]pyrazino[2,1-b][1,3]oxazepine-10-carboxamide]  26.2 nM
14. O=C(NCc1ncccc1C(F)(F)F)c1cn2c(c(O)c1=O)C(=O)N1[C@@H]3CC[C@@H](C3)O[C@H]1C2 [Compound 49, (2 S,5R,13aS)-8-hydroxy-7,9-dioxo-N-((3-(trifluoromethyl)pyridin-2-yl)methyl)-2,3,4,5,7,9,13,13a-octahydro-2,5-methanopyrido[1%2′: 4,5]pyrazino[2,1-b][1,3]oxazepine-10-carboxamide]  33.3 nM
15. C[C@H](NC(=O)c1cn2c(c(O)c1=O)C(=O)N1[C@H]3CC[C@H](C3)O[C@@H]1C2)c1ccc(F)cc1 [Compound 22, (2R,5S,13aR)—N—((S)-1-(4-fluorophenyl)ethyl)-8-hydroxy-7,9-dioxo-2,3,4,5,7,9,13,13a-octahydro-2,5-methanopyrido[1′,2′:4,5]pyrazino[2,1-b][1,3]oxazepine-10-carboxamide]  64.3 nM
16. C[C@H](NC(=O)c1cn2c(c(O)c1=O)C(=O)N1[C@H]3CC[C@H](C3)O[C@@H]1C2)c1ccc(F)cc1F [Compound 14, (2R,5S,13aR)—N—((S)-1-(2,4-difluorophenyl)ethyl)-8-hydroxy-7,9-dioxo-2,3,4,5,7,9,13,13a-octahydro-2,5-methanopyrido[1′,2′:4,5]pyrazino[2,1-b][1,3]oxazepine-10-carboxamide]  65.5 nM
